Active and inactive are the calls of the source.

Kd data for 13 molecules are collected here from ChEMBL document CHEMBL3991601, “The target landscape of clinical kinase drugs” (Science, 2017).

Assay [1] has as its target Serine/threonine-protein kinase PAK 2 (Homo sapiens, UniProt Q13177).
Assay [2] concerns the target Cyclin-dependent kinase 12 (Homo sapiens, UniProt Q9NYV4).
In assay [3] the target is Cyclin-dependent kinase 4 (Homo sapiens, UniProt P11802).
Assay [4] addresses Serine/threonine-protein kinase 24 (Homo sapiens, UniProt Q9Y6E0).
Assay [5] addresses Casein kinase I isoform delta (Homo sapiens, UniProt P48730).
Assay [6] deals with Ribosomal protein S6 kinase alpha-4 (Homo sapiens, UniProt O75676).
Assay [7] has as its target Ribosomal protein S6 kinase alpha-1 (Homo sapiens, UniProt Q15418).
Assay [8] concerns the target T1, Serine/threonine-protein kinase Chk1 (Homo sapiens, UniProt O14757).
T1 sequence (O14757 whole entry): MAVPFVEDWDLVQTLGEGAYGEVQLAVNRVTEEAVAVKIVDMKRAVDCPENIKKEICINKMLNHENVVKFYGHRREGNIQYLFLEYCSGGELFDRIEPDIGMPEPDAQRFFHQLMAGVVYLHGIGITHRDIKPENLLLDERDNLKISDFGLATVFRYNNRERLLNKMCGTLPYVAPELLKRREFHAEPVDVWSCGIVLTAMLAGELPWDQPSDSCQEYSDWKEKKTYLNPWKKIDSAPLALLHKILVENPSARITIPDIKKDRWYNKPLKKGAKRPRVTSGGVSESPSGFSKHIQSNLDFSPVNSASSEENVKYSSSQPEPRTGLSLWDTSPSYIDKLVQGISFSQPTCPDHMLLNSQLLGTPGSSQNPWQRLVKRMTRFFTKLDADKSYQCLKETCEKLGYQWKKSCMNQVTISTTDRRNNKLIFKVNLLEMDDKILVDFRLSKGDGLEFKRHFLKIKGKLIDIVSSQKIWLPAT

Assay [9] addresses PAS domain-containing serine/threonine-protein kinase (Homo sapiens, UniProt Q96RG2).
For assay [10], the target named is T2, Isoleucine--tRNA ligase, mitochondrial (Homo sapiens, UniProt Q9NSE4).
T2 sequence (Q9NSE4 whole entry): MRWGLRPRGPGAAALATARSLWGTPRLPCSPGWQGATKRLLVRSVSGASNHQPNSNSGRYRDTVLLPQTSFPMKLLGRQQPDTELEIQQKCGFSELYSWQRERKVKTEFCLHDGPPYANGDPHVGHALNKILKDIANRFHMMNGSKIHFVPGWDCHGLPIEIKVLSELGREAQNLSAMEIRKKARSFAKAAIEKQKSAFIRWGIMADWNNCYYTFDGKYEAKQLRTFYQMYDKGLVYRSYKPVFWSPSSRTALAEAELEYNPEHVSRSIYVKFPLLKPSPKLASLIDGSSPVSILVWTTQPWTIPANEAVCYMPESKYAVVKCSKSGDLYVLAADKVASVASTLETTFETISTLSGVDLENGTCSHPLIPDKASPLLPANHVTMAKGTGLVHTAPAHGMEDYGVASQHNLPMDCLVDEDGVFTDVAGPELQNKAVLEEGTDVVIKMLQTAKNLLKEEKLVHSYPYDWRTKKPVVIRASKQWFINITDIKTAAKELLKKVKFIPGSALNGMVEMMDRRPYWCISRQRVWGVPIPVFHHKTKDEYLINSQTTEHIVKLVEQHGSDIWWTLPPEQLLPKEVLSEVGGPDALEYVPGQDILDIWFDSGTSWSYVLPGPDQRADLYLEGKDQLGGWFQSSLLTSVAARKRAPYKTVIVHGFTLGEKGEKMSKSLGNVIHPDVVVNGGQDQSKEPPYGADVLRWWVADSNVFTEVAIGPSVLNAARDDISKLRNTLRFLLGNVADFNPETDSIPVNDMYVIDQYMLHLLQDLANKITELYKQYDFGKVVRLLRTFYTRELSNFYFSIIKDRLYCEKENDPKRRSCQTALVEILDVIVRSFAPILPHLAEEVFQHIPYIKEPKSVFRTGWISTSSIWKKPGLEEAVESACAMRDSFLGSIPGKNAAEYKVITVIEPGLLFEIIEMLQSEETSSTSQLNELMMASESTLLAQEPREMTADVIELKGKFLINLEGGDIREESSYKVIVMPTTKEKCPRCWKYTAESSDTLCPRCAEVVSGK

The target of assay [11] is T3, Cysteine--tRNA ligase, cytoplasmic (Homo sapiens, UniProt P49589).
T3 sequence (P49589 whole entry): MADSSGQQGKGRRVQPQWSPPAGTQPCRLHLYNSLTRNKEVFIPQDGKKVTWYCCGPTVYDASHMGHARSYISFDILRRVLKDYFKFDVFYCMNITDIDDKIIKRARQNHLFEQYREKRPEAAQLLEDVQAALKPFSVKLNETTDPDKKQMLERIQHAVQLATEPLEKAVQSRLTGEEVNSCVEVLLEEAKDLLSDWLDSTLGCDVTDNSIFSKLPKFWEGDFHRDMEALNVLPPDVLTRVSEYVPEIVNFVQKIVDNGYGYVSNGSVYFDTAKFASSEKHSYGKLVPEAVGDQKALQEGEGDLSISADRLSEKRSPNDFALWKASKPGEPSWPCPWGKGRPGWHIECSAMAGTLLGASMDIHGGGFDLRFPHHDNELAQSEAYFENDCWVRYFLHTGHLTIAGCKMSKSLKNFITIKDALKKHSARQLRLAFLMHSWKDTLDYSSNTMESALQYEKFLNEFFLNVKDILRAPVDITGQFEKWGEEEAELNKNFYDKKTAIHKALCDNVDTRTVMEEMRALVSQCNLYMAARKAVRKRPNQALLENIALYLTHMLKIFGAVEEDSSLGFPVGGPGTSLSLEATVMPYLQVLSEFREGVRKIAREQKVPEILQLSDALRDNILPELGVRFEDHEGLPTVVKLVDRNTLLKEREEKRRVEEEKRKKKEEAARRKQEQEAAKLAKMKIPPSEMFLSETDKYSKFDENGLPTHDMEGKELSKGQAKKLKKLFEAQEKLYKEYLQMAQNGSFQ
Note: in the data inactive means no Kd found up to 30 µM.

Sequence of Serine/threonine-protein kinase 24 (Q9Y6E0 whole entry, canonical isoform): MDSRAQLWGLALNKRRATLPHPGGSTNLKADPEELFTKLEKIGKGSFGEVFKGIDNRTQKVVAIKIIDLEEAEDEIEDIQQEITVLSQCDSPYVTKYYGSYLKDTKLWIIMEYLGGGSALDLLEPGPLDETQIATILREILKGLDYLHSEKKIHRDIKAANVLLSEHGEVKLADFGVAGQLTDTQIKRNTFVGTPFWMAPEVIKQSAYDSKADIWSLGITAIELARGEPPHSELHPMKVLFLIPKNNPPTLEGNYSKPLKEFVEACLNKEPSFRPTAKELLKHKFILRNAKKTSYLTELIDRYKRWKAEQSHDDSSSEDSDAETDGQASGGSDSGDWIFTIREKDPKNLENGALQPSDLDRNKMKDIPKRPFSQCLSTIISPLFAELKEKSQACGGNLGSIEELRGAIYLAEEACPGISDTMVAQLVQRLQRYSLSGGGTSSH
Sequence of Ribosomal protein S6 kinase alpha-1 (Q15418 whole entry): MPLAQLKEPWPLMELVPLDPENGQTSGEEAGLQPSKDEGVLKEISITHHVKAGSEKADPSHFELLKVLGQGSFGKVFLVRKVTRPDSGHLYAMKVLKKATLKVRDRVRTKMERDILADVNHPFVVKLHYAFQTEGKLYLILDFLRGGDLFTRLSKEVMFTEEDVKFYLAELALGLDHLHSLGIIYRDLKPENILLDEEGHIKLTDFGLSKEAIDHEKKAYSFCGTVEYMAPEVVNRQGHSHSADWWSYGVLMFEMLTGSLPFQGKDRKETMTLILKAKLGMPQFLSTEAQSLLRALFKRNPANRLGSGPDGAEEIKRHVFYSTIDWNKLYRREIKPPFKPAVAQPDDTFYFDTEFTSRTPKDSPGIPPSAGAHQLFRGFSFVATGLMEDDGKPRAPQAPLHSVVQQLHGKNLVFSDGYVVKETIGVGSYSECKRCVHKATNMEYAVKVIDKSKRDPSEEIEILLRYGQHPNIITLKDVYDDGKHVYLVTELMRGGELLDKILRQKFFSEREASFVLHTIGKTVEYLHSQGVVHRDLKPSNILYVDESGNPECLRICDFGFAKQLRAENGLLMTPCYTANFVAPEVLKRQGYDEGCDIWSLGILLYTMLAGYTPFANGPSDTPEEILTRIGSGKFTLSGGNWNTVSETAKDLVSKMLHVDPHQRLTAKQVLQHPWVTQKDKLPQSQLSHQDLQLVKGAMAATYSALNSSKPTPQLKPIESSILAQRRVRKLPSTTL
Sequence of PAS domain-containing serine/threonine-protein kinase (Q96RG2 whole entry, the tested form may be a part): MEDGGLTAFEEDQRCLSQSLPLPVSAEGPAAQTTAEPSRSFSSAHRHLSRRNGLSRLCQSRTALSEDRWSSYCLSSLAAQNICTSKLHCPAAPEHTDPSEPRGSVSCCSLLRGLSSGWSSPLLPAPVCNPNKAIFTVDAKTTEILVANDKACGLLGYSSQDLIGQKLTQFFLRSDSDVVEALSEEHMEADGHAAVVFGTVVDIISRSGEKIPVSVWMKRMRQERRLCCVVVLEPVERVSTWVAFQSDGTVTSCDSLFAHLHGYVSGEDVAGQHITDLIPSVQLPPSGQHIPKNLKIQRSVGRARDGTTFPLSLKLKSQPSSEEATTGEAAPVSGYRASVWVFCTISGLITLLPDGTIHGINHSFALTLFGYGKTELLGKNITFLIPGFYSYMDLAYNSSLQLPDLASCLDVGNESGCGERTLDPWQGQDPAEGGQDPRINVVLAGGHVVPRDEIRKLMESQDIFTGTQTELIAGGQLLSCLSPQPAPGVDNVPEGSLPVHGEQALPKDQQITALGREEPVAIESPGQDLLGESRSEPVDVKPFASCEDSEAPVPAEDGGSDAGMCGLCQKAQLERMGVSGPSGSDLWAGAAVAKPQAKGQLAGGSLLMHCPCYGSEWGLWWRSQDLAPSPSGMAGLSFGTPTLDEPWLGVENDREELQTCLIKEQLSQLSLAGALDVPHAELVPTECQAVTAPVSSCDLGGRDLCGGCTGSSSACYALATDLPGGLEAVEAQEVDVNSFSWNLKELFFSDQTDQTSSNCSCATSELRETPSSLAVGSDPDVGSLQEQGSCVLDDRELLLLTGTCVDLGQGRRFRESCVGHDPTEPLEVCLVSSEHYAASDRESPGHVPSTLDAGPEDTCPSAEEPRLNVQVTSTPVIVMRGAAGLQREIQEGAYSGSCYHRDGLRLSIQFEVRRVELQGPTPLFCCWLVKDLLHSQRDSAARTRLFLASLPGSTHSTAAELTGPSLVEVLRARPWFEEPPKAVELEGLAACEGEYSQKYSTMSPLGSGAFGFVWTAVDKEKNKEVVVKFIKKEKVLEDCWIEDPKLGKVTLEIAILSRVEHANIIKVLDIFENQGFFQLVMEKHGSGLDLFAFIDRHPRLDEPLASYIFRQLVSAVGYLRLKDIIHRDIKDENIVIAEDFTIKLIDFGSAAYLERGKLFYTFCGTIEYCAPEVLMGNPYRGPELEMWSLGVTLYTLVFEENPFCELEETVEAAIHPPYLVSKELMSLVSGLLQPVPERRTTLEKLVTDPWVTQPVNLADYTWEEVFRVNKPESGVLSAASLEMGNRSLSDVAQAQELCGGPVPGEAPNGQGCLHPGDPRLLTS
Sequence of Cyclin-dependent kinase 4 (P11802 whole entry): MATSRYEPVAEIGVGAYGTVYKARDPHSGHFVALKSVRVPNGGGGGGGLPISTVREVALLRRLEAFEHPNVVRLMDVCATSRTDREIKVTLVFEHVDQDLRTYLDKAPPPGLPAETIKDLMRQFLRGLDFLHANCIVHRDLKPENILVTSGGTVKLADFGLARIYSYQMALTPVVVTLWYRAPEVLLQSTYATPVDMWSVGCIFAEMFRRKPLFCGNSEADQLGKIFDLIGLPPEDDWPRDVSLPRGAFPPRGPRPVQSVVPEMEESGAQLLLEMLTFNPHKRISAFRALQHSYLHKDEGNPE
Sequence of Cyclin-dependent kinase 12 (Q9NYV4 whole entry): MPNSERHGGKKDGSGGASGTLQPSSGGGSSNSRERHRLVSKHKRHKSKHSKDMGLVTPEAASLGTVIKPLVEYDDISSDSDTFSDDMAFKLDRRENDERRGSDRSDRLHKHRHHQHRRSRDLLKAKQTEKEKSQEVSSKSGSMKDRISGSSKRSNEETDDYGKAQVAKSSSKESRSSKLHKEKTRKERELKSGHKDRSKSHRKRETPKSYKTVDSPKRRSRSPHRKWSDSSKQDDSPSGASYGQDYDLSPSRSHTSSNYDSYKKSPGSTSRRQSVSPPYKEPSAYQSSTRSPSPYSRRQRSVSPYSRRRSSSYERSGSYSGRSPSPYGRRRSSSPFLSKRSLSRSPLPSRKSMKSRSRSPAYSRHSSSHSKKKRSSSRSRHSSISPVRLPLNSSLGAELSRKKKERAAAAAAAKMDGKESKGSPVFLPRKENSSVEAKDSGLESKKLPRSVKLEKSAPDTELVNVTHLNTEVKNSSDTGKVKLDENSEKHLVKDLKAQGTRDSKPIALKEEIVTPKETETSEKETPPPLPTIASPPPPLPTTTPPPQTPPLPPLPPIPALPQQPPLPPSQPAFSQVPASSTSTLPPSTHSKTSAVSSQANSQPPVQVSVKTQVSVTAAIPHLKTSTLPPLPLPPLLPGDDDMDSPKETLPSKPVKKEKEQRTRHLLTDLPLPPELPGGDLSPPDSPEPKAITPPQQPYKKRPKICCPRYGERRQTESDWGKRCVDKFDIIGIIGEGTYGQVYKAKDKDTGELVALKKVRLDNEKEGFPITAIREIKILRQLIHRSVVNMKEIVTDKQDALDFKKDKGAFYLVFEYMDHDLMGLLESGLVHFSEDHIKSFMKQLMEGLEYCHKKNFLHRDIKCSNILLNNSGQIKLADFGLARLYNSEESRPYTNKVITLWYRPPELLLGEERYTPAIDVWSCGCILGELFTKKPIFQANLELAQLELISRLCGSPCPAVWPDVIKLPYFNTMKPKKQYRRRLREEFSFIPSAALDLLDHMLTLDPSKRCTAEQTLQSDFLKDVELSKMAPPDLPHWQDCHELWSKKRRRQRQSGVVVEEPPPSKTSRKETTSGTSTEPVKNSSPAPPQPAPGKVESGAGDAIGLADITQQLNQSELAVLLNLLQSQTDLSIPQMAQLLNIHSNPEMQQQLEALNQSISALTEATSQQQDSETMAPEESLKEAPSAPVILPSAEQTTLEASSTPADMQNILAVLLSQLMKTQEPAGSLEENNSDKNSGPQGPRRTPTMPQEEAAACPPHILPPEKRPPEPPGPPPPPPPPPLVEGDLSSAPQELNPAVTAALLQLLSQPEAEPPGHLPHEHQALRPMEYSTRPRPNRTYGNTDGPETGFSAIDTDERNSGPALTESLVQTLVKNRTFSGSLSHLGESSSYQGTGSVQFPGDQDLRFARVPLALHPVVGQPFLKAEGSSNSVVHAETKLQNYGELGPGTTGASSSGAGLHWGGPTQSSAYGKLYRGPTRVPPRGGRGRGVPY
Sequence of Casein kinase I isoform delta (P48730 whole entry, canonical isoform): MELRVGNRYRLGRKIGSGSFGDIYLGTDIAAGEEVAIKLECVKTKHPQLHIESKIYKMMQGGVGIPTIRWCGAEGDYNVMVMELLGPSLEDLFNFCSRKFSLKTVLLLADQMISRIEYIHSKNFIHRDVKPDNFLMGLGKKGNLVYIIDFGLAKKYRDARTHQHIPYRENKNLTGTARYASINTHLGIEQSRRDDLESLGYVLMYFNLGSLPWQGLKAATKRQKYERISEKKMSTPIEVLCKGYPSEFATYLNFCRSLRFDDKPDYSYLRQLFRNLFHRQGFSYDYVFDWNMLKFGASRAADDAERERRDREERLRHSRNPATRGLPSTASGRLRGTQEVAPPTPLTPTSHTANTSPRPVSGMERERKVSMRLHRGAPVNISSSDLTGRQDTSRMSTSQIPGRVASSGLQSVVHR

For the molecule `C[C@@H](Oc1cc(C(=O)Nc2ccc(C(=O)N3CCN(C)CC3)cc2)nnc1N)c1c(Cl)ccc(F)c1Cl`, the Kd in assay [1], in assay [2], in assay [3], in assay [4], in assay [5] and in assay [6] was > 30 µM (inactive) each time. For the same molecule, the Kd in assay [7] and in [8] was > 30 µM (inactive) throughout.

In the case of `CC(=O)c1cnc2ccc(-c3cc(Cl)c(O)c(Cl)c3)nc2c1N[C@H]1CC[C@H](CN(C)C)CC1`, the Kd in [1] was > 30 µM (inactive); in assay [2] it was > 30 µM (inactive); in [9], > 30 µM (inactive); in assay [10], > 30 µM (inactive); in [3] it was > 30 µM (inactive); in assay [6], 0.111 µM (active). Besides, the results for the Kd in assay [11], in assay [7] and in assay [8] were > 30 µM (inactive), 0.251 µM (active) and > 30 µM (inactive), respectively.

As for `CNC(=O)c1ccccc1Sc1ccc2c(/C=C/c3ccccn3)n[nH]c2c1` [AXITINIB], the Kd in assay [2], in [9] and in assay [11] was > 30 µM (inactive) each time.

For the molecule `COc1cc([C@@H]2c3cc4c(cc3[C@H](O)[C@H]3COC(=O)[C@@H]23)OCO4)cc(OC)c1OC` [AXL-1717], the Kd in [1], in assay [2], in assay [10], in assay [3], in assay [4] and in assay [5] was > 30 µM (inactive) in each case. For the same molecule, the Kd in assay [6], in assay [11], in assay [7] and in assay [8] was > 30 µM (inactive) in each case.

Take `Cn1cnc2c(F)c(Nc3ccc(Br)cc3F)c(C(=O)NOCCO)cc21` [BINIMETINIB]: the Kd in [1], in assay [2], in [9], in assay [3], in assay [4] and in assay [5] was > 30 µM (inactive) each time. Also, the Kd in [6], in [11], in assay [7] and in [8] was > 30 µM (inactive) throughout.

`Cn1cc(-c2cnc3ccc4ccc(CS(=O)(=O)NCc5ccccn5)cc4c(=O)c3c2)cn1` [MK-8033]: the Kd in assay [1], in assay [2], in assay [9], in [10], in assay [3] and in [5] was > 30 µM (inactive) throughout. Besides, the Kd in [6], in assay [11], in assay [7] and in assay [8] was > 30 µM (inactive) throughout.

In the case of `NC(=O)c1c(OCc2c(F)cc(Br)cc2F)nsc1NC(=O)NCCCCN1CCCC1` [OSI-632], the Kd in [2], in [9] and in [3] was > 30 µM (inactive) each time.

For `CCCCCCCCCCCCCCCCCCOP(=O)([O-])OC1CC[N+](C)(C)CC1` [PERIFOSINE], the Kd in [1], in assay [2], in assay [9], in assay [10], in assay [3] and in assay [5] was > 30 µM (inactive) throughout. Moreover, the Kd in assay [6], in assay [11], in [7] and in assay [8] was > 30 µM (inactive) each time.

Regarding `N#CC[C@H](C1CCCC1)n1cc(-c2ncnc3[nH]ccc23)cn1` [RUXOLITINIB], the Kd in assay [2], in [9], in assay [10] and in assay [11] was > 30 µM (inactive) in each case.

For the molecule `CN1CCN(CCOc2cc(OC3CCOCC3)c3c(Nc4c(Cl)ccc5c4OCO5)ncnc3c2)CC1` [SARACATINIB], the Kd in assay [2], in [9], in [3], in assay [4], in assay [5] and in [6] was > 30 µM (inactive) throughout. Also, the Kd in [7] and in assay [8] was > 30 µM (inactive) throughout.

For the molecule `Cn1ncc(Cl)c1-c1cc(C(=O)N[C@H](CN)Cc2ccc(F)c(F)c2)oc1Cl` [UPROSERTIB], the Kd in assay [1], in [2], in assay [3], in assay [4], in [5] and in assay [6] was > 30 µM (inactive) in each case. For the same molecule, the Kd in [7] and in [8] was > 30 µM (inactive) in each case.

As for `CC(C)c1cc(CNc2nc(Nc3cc(C4CC4)[nH]n3)cc(N3CCN(C)CC3)n2)on1` [XL-228], the Kd in [1], in assay [2], in assay [9], in [3], in [4] and in assay [5] was > 30 µM (inactive) each time. The Kd in [6], in assay [11], in [7] and in [8] was > 30 µM (inactive) throughout.

For `CN1C/C=C/CCOc2cccc(c2)-c2ccnc(n2)Nc2cccc(c2)C1` [ZOTIRACICLIB], the Kd in assay [1] was > 30 µM (inactive); in [2] it was 5.63 µM (active); in assay [9], > 30 µM (inactive); in assay [10], > 30 µM (inactive); in assay [3], > 30 µM (inactive); in [5], 2.38 µM (active). Also, the Kd in [6], in assay [11], in [7] and in assay [8] was > 30 µM (inactive) in each case.

As a reminder, the Kd is a measure of binding affinity in units of concentration.
